Reference: patent publication US11739051B2 (ALEXION PHARMA INTERNATIONAL OPERATIONS UNLIMITED COMPANY, priority 2018, dated 2023)

Assays:
WD patients = conditions: once daily dosing in WD patients; cited from earlier work
[1] = Crystallinity by X-ray powder diffraction (XRPD); format: physicochemical
Method: Crystallinity was analyzed by X-ray powder diffraction (XRPD) using a Cu-anode (45 kV/40 mA), a Kα-1 monochromator and silicon-based position-sensitive 1D detector (Malvern Panalytical, X'Celerator™). The 2-theta range was 2-35° using a scan speed of 0.02°/s and a step size of 0.017°. Slow spinning sample holders were used. […] Each sample was smeared out using a Teflon bar, producing a flat powdered surface on zero background wafers of silicon (Si). The measurements were performed using a programmable incident divergence slit.
The crystallinity was evaluated using Panalytical HighScore Plus™ software (The HighScore suite; T. Degen, M. Sadki, E. Bron, U. König, G. Nénert; Powder Diffraction, Volume 29, Supplement S2, December 2014, pp S13-S18). This method is based on the following steps: 1) Calculation of the net area of the signals from the crystalline part of the sample. This area is defined as “AREAcryst.” 2) Calculation of the net total area, that is, area from the amorphous “humps” plus the net peak area from step 1. This area is defined as “AREAtotal.” In the calculation of above areas, an automatic correction of the background is made by using data collected for an empty sample holder. 3) The percent crystallinity of the sample is calculated as: (AREAcryst/AREAtotal)*100.
XRPD crystallinity results for each batch are reported Table 1.

[2] = Particle size distribution (PSD) by LALLS; format: physicochemical; conditions: for Dx (10)/μm: 10th percentile of particle size, paraffin oil dispersion; for Dx (50)/μm: 50th percentile of particle size; for Dx (90)/μm: 90th percentile of particle size; for >100 μm (%): percentage of particles greater than 100 μm; for <2 μm (%): percentage of particles less than 2 μm
Description: As used herein, the term “Dx(10)/μm” refers to the 10th percentile of particle size (D10) measured in micrometers (μm). As used herein, the terms “Dx(50)/μm” or “median particle size” refer to the 50th percentile particle size (D50). As used herein, the term “Dx(90)/μm” refers to the 90th percentile of particle size (D90).
As used herein, the term “<2 μm (%)” refers to the percentage (%) of particles that are less than 2 μm. As used herein, the term “>100 μm (%)” refers to the percentage (%) of particles that are greater than 100 μm. As used herein, the percentage of particles refers to the percentage based on the population, or number, of particles.
The sample dispersion medium was paraffin oil. […] This was repeated until a stable reading was obtained.
The PSD measurements were done using the following settings: background measurement time, 20 seconds(s); sample measurement time, 20 s; dispersant refractive index, 1.45; particle refractive index, N/A (Fraunhofer), absorption, N/A (Fraunhofer); stirrer speed, 2500 rpm; analysis model: general purpose.

[3] = Specific surface area (SSA) by BET; format: physicochemical; conditions: N2 adsorption
Method: As used herein, the ten “SSA (m^2/g)” refers to specific surface area (SSA) measured in square meters (m^2) per gram (g). SSA was measured by BET according to the method described in Example 4.
Specific Surface Area (SSA) was analyzed by BET on a surface area analyzer (Gemini 2375™ from Micromeritics Instrument Corp.). […] Each sample was filled into a glass tube and “degassed” at 30° C. for 1 h under continuous N2 (g) flow in order to remove all loosely bound molecules on the external surface and from potential channels in the material. Simultaneously, the saturation pressure for the liquid nitrogen used was determined. After weighing the degassed samples, the degassed samples were inserted into the measuring position at −196° C. (boiling point for liquid nitrogen), evacuated and then exposed to a range of partial pressures basically covering the whole range from almost zero to close to 1 under adsorption mode. The lower pressures were used for SSA determination. Higher pressures were used for potential micro pore determination. In order to ascribe the right amount of nitrogen to the substances, the free volume in the tubes was measured with helium gas prior to nitrogen adsorption. The appropriate thickness values for the adsorbed layer (above the point where no absorption took place in micro pores anymore) was determined from a t-plot and subsequently used to correct the calculation by separating the adsorbed nitrogen molecules into either absorbed into potential pore like structures (the “micro pore volume”) or adsorbed onto actual external surface.

[4] = Stability of crystalline particles after forced degradation at 40° C. and 75% relative humidity (HPLC impurities); format: physicochemical
Method: Stability analysis was performed on crystalline particles after forced degradation at 40° C. and 75% relative humidity over 3 days.

[5] = Day 3, 40° C. / 75% RH, listed as B-2
[6] = Day 3, 40° C. / 75% RH, listed as B-3
[7] = Day 3, 40° C. / 75% RH, listed as B-4

In the case of Bis-choline tetrathiomolybdate [BC-TTM], the “Cu control and improvement of hepatic function” value (WD patients) is listed as “demonstrated to provide Cu control and improvement of hepatic function”.

In the case of “bis-choline tetrathiomolybdate [Batch B-2]”, the “Estimated Crystallinity (%)” value ([1]; AREAcryst/AREAtotal*100, listed as B-2) is reported as 93%, the “Dx (10)/μm” value ([2]; listed as B-2) is reported as 5.4 μm and the “Dx (50)/μm” value ([2]; listed as B-2) is reported as 20.5 μm. For the same substance, the “Dx (90)/μm” value ([2]; listed as B-2) was 59.7 μm, the “>100 μm (%)” value ([2]; listed as B-2) was 0.1% and the “<2 μm (%)” value ([2]; listed as B-2) was 4.3%. For the same substance, the “SSA (m^2/g)” value ([3]; listed as B-2) was 0.65 m^2/g, the “Mo2S6O2 dimer (area %)” value ([4]; Day 1, 40° C. / 75% RH, listed as B-2) was 0.07 area % and the “Mo2S6O2 dimer (area %)” value ([4]; Day 2, 40° C. / 75% RH, listed as B-2) was 0.13 area %. For the same substance, the “Mo2S6O2 dimer (area %)” value [4, 5] was 0.19 area %, the “TM2 (area %)” value [4, 5] was 0.13 area % and the “TM3 (area %)” value [4, 5] was 0.54 area %. The “Total impurities (area %)” value [4, 5] was 0.97 area %, the “TM2 (area %)” value ([4]; Initial, listed as B-2) was 0.01 area % and the “TM3 (area %)” value ([4]; Initial, listed as B-2) was 0.52 area %. The “Total impurities (area %)” value ([4]; Initial, listed as B-2) was 0.56 area %.

For “bis-choline tetrathiomolybdate [Batch B-3]”, the “Estimated Crystallinity (%)” value ([1]; AREAcryst/AREAtotal*100, listed as B-3) was 95%, the “Dx (10)/μm” value ([2]; listed as B-3) was 10.5 μm and the “Dx (50)/μm” value ([2]; listed as B-3) was 30.0 μm. For the same substance, the “Dx (90)/μm” value ([2]; listed as B-3) was 54.9 μm, the “>100 μm (%)” value ([2]; listed as B-3) was 0.0% and the “<2 μm (%)” value ([2]; listed as B-3) was 2.6%. The “SSA (m^2/g)” value ([3]; listed as B-3) was 0.38 m^2/g, the “Mo2S6O2 dimer (area %)” value ([4]; Day 1, 40° C. / 75% RH, listed as B-3) was <0.05 area % and the “Mo2S6O2 dimer (area %)” value ([4]; Day 2, 40° C. / 75% RH, listed as B-3) was 0.07 area %. For the same substance, the “Mo2S6O2 dimer (area %)” value [4, 6] was 0.11 area %, the “TM2 (area %)” value [4, 6] was 0.10 area % and the “TM3 (area %)” value [4, 6] was 0.43 area %. The “Total impurities (area %)” value [4, 6] was 0.68 area %, the “TM2 (area %)” value ([4]; Initial, listed as B-3) was 0.01 area % and the “TM3 (area %)” value ([4]; Initial, listed as B-3) was 0.42 area %. For the same substance, the “Total impurities (area %)” value ([4]; Initial, listed as B-3) was 0.44 area %.

In the case of “bis-choline tetrathiomolybdate [Batch B-4]”, the “Estimated Crystallinity (%)” value ([1]; AREAcryst/AREAtotal*100, listed as B-4) is reported as 93%, the “Dx (10)/μm” value ([2]; listed as B-4) is reported as 3.6 μm and the “Dx (50)/μm” value ([2]; listed as B-4) is reported as 12.7 μm. For the same substance, the “Dx (90)/μm” value ([2]; listed as B-4) was 47.6 μm, the “>100 μm (%)” value ([2]; listed as B-4) was 0.0% and the “<2 μm (%)” value ([2]; listed as B-4) was 6.6%. For the same substance, the “SSA (m^2/g)” value ([3]; listed as B-4) was 1.16 m^2/g, the “Mo2S6O2 dimer (area %)” value ([4]; Day 1, 40° C. / 75% RH, listed as B-4) was 0.06 area % and the “Mo2S6O2 dimer (area %)” value ([4]; Day 2, 40° C. / 75% RH, listed as B-4) was 0.23 area %. The “Mo2S6O2 dimer (area %)” value [4, 7] was 0.38 area %, the “TM2 (area %)” value [4, 7] was 0.19 area % and the “TM3 (area %)” value [4, 7] was 0.23 area %. The “Total impurities (area %)” value [4, 7] was 1.01 area %, the “Mo2S6O2 dimer (area %)” value ([4]; Initial) was <0.05 area % and the “TM2 (area %)” value ([4]; Initial, listed as B-4) was 0.01 area %. For the same substance, the “TM3 (area %)” value ([4]; Initial, listed as B-4) was 0.14 area % and the “Total impurities (area %)” value ([4]; Initial, listed as B-4) was 0.20 area %.
